Data published in ChEMBL document CHEMBL1201862, “PubChem BioAssay data set” (2004).
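Five compound concentrations were applied to cells in 96-well plates for 48 hours; endpoints were derived by simple linear interpolation of the resulting dose-response curve. Abbreviation: GI50, concentration required for 50% inhibition of growth.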 Active and inactive are the calls of the source. No stated cut-off is given here; in the data, active = GI50 up to about 1.1 µM and inactive = higher.

Tests used:
Experiment in all cases: NCI tumour cell line growth inhibition, 48 h
OVCAR-8 = test system: OVCAR-8
RXF 393 = test system: RXF 393
A549 = test system: A549
TK-10 = test system: TK-10
NCI-H226 = test system: NCI-H226
KM12 = test system: KM12
SNB-75 = test system: SNB-75
LOX IMVI = test system: LOX IMVI
SF-295 = test system: SF-295
K562 = test system: K562
UO-31 = test system: UO-31
IGROV-1 = test system: IGROV-1
SF-268 = test system: SF-268
M14 = test system: M14
SW-620 = test system: SW-620
CCRF-CEM = test system: CCRF-CEM
NCI-H522 = test system: NCI-H522

SMILES	GI50 (OVCAR-8)	GI50 (RXF 393)	GI50 (A549)	GI50 (TK-10)	GI50 (NCI-H226)	GI50 (KM12)	GI50 (SNB-75)	GI50 (LOX IMVI)	GI50 (SF-295)	GI50 (K562)	GI50 (UO-31)	GI50 (IGROV-1)	GI50 (SF-268)	GI50 (M14)	GI50 (SW-620)	GI50 (CCRF-CEM)	GI50 (NCI-H522)
COC(=O)Cc1cc(=O)n2c([nH]c3ccccc32)c1C#N	> 100 µM (inactive)	97.3 µM (inactive)	> 100 µM (inactive)	> 100 µM (inactive)	> 100 µM (inactive)	> 100 µM (inactive)	0.42 µM (active)	> 100 µM (inactive)	> 100 µM (inactive)	> 100 µM (inactive)	61 µM (inactive)	> 100 µM (inactive)	> 100 µM (inactive)	> 100 µM (inactive)	> 100 µM (inactive)		
COc1ccc(-c2cc(N3CCN(c4ccc(Cl)cc4)CC3)c(C#N)c(=O)o2)cc1	5.28 µM (inactive)	5.12 µM (inactive)	10.1 µM (inactive)	16.5 µM (inactive)	2.52 µM (inactive)	> 100 µM (inactive)	3.25 µM (inactive)	10.4 µM (inactive)	4.28 µM (inactive)		4.79 µM (inactive)	10.9 µM (inactive)	5.38 µM (inactive)	35.1 µM (inactive)	40 µM (inactive)		
COc1nc(N)c(NC(C)=O)c(=O)n1C	> 100 µM (inactive)	> 100 µM (inactive)	> 100 µM (inactive)	> 100 µM (inactive)	0.14 µM (active)	> 100 µM (inactive)	> 100 µM (inactive)	> 100 µM (inactive)	> 100 µM (inactive)	> 100 µM (inactive)	> 100 µM (inactive)	> 100 µM (inactive)	> 100 µM (inactive)	> 100 µM (inactive)	> 100 µM (inactive)	> 100 µM (inactive)	
CC1=NN(C(=O)c2ccc(Cl)cc2)C(=O)/C1=C/c1cccc([N+](=O)[O-])c1	> 100 µM (inactive)	> 100 µM (inactive)	> 100 µM (inactive)	> 100 µM (inactive)		> 100 µM (inactive)		> 100 µM (inactive)	> 100 µM (inactive)	> 100 µM (inactive)	> 100 µM (inactive)	> 100 µM (inactive)	> 100 µM (inactive)	> 100 µM (inactive)	> 100 µM (inactive)	> 100 µM (inactive)	> 100 µM (inactive)
Cc1cc(Cl)ccc1NC(=O)CCCC(=O)C(C(=O)c1ccccc1)c1ccccc1 (stereo not given)						> 100 µM (inactive)		> 100 µM (inactive)	> 100 µM (inactive)	> 100 µM (inactive)		> 100 µM (inactive)	> 100 µM (inactive)	> 100 µM (inactive)		> 100 µM (inactive)	> 100 µM (inactive)
CC1CCCP(=O)(c2ccccc2)CC1 (stereo not given)	> 100 µM (inactive)	> 100 µM (inactive)	> 100 µM (inactive)	> 100 µM (inactive)		> 100 µM (inactive)	> 100 µM (inactive)	> 100 µM (inactive)	> 100 µM (inactive)	> 100 µM (inactive)	> 100 µM (inactive)	> 100 µM (inactive)	> 100 µM (inactive)	> 100 µM (inactive)	> 100 µM (inactive)	> 100 µM (inactive)	
COc1ccc(S(=O)(=O)c2ccccc2[N+](=O)[O-])cc1	> 100 µM (inactive)	55.6 µM (inactive)	> 100 µM (inactive)	> 100 µM (inactive)	> 100 µM (inactive)	> 100 µM (inactive)	21.9 µM (inactive)	91.4 µM (inactive)	62.8 µM (inactive)	> 100 µM (inactive)	78 µM (inactive)	> 100 µM (inactive)	> 100 µM (inactive)	> 100 µM (inactive)	> 100 µM (inactive)	> 100 µM (inactive)	
